According to paper PMC9667776 (RSC Medicinal Chemistry, 2022):

What was measured:
[1] = tested on: 2-epimerase; format: binding, B. anthracis
[2] = biological target: PAK4 (Homo sapiens, UniProt O96013, L310A); format: binding
PAK4, sequence (O96013 300-591 L310A limits assumed): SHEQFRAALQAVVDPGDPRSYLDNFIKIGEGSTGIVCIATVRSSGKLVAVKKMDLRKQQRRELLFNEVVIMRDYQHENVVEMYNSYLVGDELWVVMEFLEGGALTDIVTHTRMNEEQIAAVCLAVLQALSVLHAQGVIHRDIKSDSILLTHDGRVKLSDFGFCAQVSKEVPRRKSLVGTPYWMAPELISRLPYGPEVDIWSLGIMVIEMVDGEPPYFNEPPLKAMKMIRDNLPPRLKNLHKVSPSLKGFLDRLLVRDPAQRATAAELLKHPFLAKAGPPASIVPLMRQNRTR

Compound: O=S(=O)(CCCn1cc(CCNS(=O)(=O)c2ccc(Br)cc2Cl)nn1)Nc1ccc(Nc2ccc(C(F)(F)F)nn2)cc1 [compound 4]
- competition with UDP-GlcNAc by LO-NMR [1]: competitive with UDP-GlcNAc

Compound: CNC(=O)c1cnn2ccc(C#N)cc12 [compound 5]
- binding by competitive LO-NMR [2]: consistent with binding to the ATP-binding site
